Measured values as given in patent publication US12522597B2, “Methods and compositions for modulating splicing” (Skyhawk Therapeutics, Inc., priority 2019, dated 2026).

How the values were obtained:
[1] = system: MDR1-MDCK cell monolayers; assay: MDCK-MDR1 permeability assay (BBB penetration potential); format: in vitro ADME; settings: dog, MDCK-MDR1, 120 min, 5 μM, pH 7.4
Procedure: (§1) Each determination is performed in duplicate. […] Analytical conditions are outlined below.

[2] = system: MDR1; assay: as above; format: in vitro ADME; settings: dog; for efflux ratio at 120 min, 5 μM: MDCK-MDR1, pH 7.4, MDCK-MDR1: Efflux; for Papp A→B at 120 min, 5 μM: MDCK-MDR1, pH 7.4, MDCK-MDR1: Papp A-B; for Papp B→A at 120 min, 5 μM: MDCK-MDR1, pH 7.4, MDCK-MDR1: Papp B-A
Procedure: as §1

[3] = system: mHTT protein; assay: mHTT protein assay (2B7-MW1, Mesoscale Discovery); format: cell-based, human; settings: GM04724 (CAG 70/20) Huntington's disease patient lymphoblast cells, 48 hours, 2B7-MW1 MSD; read-out: HTT Potency - Protein EC50 mHTT (average)
Procedure: Compounds are tested on GM04724 (CAG 70/20) Huntington's disease patient lymphoblast cells at doses ranging from 10 μM to 0.6 nM. 4,500 cells/well are seeded in 384 well plates. One plate replica is carried out for parallel viability testing by CellTiter Glo (CTG). Compounds are incubated for 48 hours, mHTT protein levels are assessed by the 2B7-MW1 assay via Mesoscale Discovery (MSD) as previously reported (Macdonald et al., 2014). The antibody pair is comprised of previously characterized monoclonals (2B7 and MW1) interrogating two regions for HTT conformation and biological properties: the N17 domain and the polyQ domain (Baldo et al., 2012; Ko et., 2001). 2B7-MW1 is dependent on subject/animal specific levels of HTT at the time of treatment. 2B7-MW1 is dependent on polyQ expansion (e.g., the higher the expansion the higher the signal) and on mHTT size (e.g., a similar polyQ will give higher signal with smaller HTT size). The viability readout is carried out by CTG according to the manufacturer's instructions.

Structure (SMILES) | MDCK-MDR1: % Recov A-B [1] | MDCK-MDR1: % Recov B-A [1] | efflux ratio at 120 min, 5 μM [2] | Papp A→B at 120 min, 5 μM [2] | Papp B→A at 120 min, 5 μM [2] | EC50 [3]
Oc1cc2cnccc2cc1-c1ccc(O[C@@H]2C[C@H]3CCC[C@H](N3)[C@@H]2F)nn1 (single isomer, unassigned) [80-ENT1] | 70% | 78% | 4 | 7.47 ×10⁻⁶ cm/s | 31.4 ×10⁻⁶ cm/s | 101 to 500 nM
Oc1cc(-n2ccnc2)ccc1-c1ccc(O[C@@H]2C[C@H]3CC[C@H](N3)[C@@H]2F)nn1 (single isomer, unassigned) [36-ENT1] | 74% | 83% | 5 | 5.28 ×10⁻⁶ cm/s | 26 ×10⁻⁶ cm/s | 51 to 100 nM
Oc1cc(-n2ccnc2)ccc1-c1ccc(O[C@H]2C[C@@H]3CC(F)(F)[C@H](C2)N3)nn1 (single isomer, unassigned) [51-ENT2] | 86% | 90% | 2 | 25.8 ×10⁻⁶ cm/s | 46.7 ×10⁻⁶ cm/s | 501 to 10000 nM
Oc1cc(-c2ccc3cncn3c2)ccc1-c1ccc(O[C@@H]2C[C@H]3CCC[C@H](N3)[C@@H]2F)nn1 (single isomer, unassigned) [85-ENT1] | 33% | 66% | 6 | 2.12 ×10⁻⁶ cm/s | 12.1 ×10⁻⁶ cm/s | 101 to 500 nM
Cn1cc(-c2ccc(-c3ccc(O[C@@H]4C[C@H]5CCC[C@H](N5)[C@@H]4F)nn3)c(O)c2)c(F)n1 (single isomer, unassigned) [109-ENT1] | 57% | 76% | 3 | 5.54 ×10⁻⁶ cm/s | 18.9 ×10⁻⁶ cm/s | 16 to 50 nM
Oc1cc(-c2cn[nH]c2)ccc1-c1ccc(O[C@@H]2C[C@H]3CCC[C@H](N3)[C@H]2F)nn1 (single isomer, unassigned) [41-ENT2] | 66% | 74% | 8 | 4.96 ×10⁻⁶ cm/s | 40.9 ×10⁻⁶ cm/s | 16 to 50 nM
Cn1cc(-c2ccc(-c3ccc(O[C@H]4C[C@H]5CCC[C@H](N5)[C@H]4F)nn3)c(O)c2)cn1 (single isomer, unassigned) [122-ENT1] | 50% | 66% | 5 | 4.73 ×10⁻⁶ cm/s | 23.3 ×10⁻⁶ cm/s | 501 to 10000 nM
Oc1cc(-c2ccccn2)ccc1-c1ccc(O[C@H]2C[C@@H]3CCC[C@@H](N3)[C@H]2F)nn1 (single isomer, unassigned) [77-ENT2] | 57% | 79% | 5 | 6.32 ×10⁻⁶ cm/s | 30.2 ×10⁻⁶ cm/s | 101 to 500 nM
Oc1cc(-c2ccn3cnnc3c2)ccc1-c1ccc(O[C@@H]2C[C@H]3CCC[C@H](N3)[C@@H]2F)nn1 (single isomer, unassigned) [86-ENT1] | 89% | 93% | 46 | 0.54 ×10⁻⁶ cm/s | 24.7 ×10⁻⁶ cm/s | 101 to 500 nM
Cc1cncc(-c2ccc(-c3ccc(O[C@H]4C[C@@H]5CCC[C@@H](N5)[C@H]4F)nn3)c(O)c2)n1 (single isomer, unassigned) [102-ENT2] | 86% | 89% | 6 | 7.93 ×10⁻⁶ cm/s | 48.4 ×10⁻⁶ cm/s | 101 to 500 nM
Oc1cc(-c2cc[nH]n2)ccc1-c1ccc(O[C@@H]2C[C@H]3CCC[C@H](N3)[C@@H]2F)nn1 (single isomer, unassigned) [66-ENT1] | 79% | 80% | 11 | 0.93 ×10⁻⁶ cm/s | 10.1 ×10⁻⁶ cm/s | 51 to 100 nM
Oc1cc(-c2nncs2)ccc1-c1ccc(O[C@H]2C[C@@H]3CC[C@@H](N3)[C@H]2F)nn1 (single isomer, unassigned) [141-ENT1] | 111% | 120% | 6 | 9.97 ×10⁻⁶ cm/s | 59.7 ×10⁻⁶ cm/s | 101 to 500 nM
Cc1cncc(-c2ccc(-c3ccc(O[C@@H]4C[C@H]5CCC[C@H](N5)[C@@H]4F)nn3)c(O)c2)n1 (single isomer, unassigned) [102-ENT1] | 89% | 90% | 6 | 7.66 ×10⁻⁶ cm/s | 43.1 ×10⁻⁶ cm/s | 101 to 500 nM
Oc1cc(-c2ccc3nncn3c2)ccc1-c1ccc(O[C@H]2C[C@@H]3CCC[C@@H](N3)[C@H]2F)nn1 (single isomer, unassigned) [73-ENT2] | 90% | 87% | 84 | 0.49 ×10⁻⁶ cm/s | 41.3 ×10⁻⁶ cm/s | 101 to 500 nM
Cc1nnc(-c2ccc(-c3ccc(O[C@H]4C[C@@H]5CCC[C@@H](N5)[C@H]4F)nn3)c(O)c2)s1 (single isomer, unassigned) [95-ENT2] | 78% | 87% | 9 | 3.59 ×10⁻⁶ cm/s | 33.1 ×10⁻⁶ cm/s | 101 to 500 nM
N#Cc1ccc(-c2ccc(O[C@@H]3C[C@H]4CC[C@H](N4)[C@@H]3F)nn2)c(O)c1 (single isomer, unassigned) [111-ENT1] | 90% | 92% | 3 | 15.6 ×10⁻⁶ cm/s | 44.7 ×10⁻⁶ cm/s | 501 to 10000 nM
Cc1cc(-c2ccc(-c3ccc(O[C@H]4C[C@@H]5CCC[C@@H](N5)[C@H]4F)nn3)c(O)c2)co1 (single isomer, unassigned) [98-ENT2] | 9% | 45% | 3 | 1.07 ×10⁻⁶ cm/s | 3.23 ×10⁻⁶ cm/s | 101 to 500 nM
Oc1cc(-n2ccnn2)ccc1-c1ccc(O[C@H]2C[C@@H]3CCC[C@@H](N3)[C@H]2F)nn1 (single isomer, unassigned) [69-ENT2] | 86% | 93% | 5 | 10.7 ×10⁻⁶ cm/s | 55.9 ×10⁻⁶ cm/s | 101 to 500 nM
Cn1ccc(=O)c2cc(-c3ccc(O[C@H]4C[C@]5(C)CCC[C@@](C)(N5)[C@H]4F)nn3)c(O)cc21 (single isomer, unassigned) [131-ENT1] | 95% | 99% | 70 | 0.71 ×10⁻⁶ cm/s | 49.5 ×10⁻⁶ cm/s | 501 to 10000 nM
Oc1cc2cccnc2cc1-c1ccc(O[C@@H]2C[C@H]3CCC[C@H](N3)[C@@H]2F)nn1 (single isomer, unassigned) [105-ENT1] | 92% | 84% | 6 | 8.12 ×10⁻⁶ cm/s | 47.1 ×10⁻⁶ cm/s | 101 to 500 nM
